# Earlier results as cited in US20160075995A1, “SWEAT GLAND-DERIVED STEM CELLS AND METHODS OF USE” (priority 2014, published 2016).
# Assays:
# [1] = published reports
# [2] = DMSO
structure (smiles),measurement,setting,value
c1cc(-c2cnn3cc(-c4ccc(OCCN5CCCCC5)cc4)cnc23)ccn1 [dorsomorphin],toxicity,[1],low toxicity
same,solubility,[2],soluble in DMSO
